Data reported in the Kinase Knowledgebase extract (Sharma et al. 2016).

Target: MAPK14 (human) (UniProt Q16539)
Experiment: Assesment of MAPK14 Kinase Activity

Sequence of MAPK14 (human) (Q16539 whole entry, looked up): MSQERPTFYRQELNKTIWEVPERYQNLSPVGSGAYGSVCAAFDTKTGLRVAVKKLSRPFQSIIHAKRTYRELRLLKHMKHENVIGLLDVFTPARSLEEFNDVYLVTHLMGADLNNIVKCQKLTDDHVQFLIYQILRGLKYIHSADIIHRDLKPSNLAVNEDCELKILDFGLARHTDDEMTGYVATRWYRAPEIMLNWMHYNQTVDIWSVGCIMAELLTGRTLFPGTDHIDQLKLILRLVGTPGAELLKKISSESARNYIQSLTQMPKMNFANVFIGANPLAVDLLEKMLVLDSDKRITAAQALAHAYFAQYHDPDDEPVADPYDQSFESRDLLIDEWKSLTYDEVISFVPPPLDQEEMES

Row | SMILES | EC50 [µM]
1 | CC(C)(F)Cn1ncc2cc(Oc3ccc(F)cc3F)c(C(=O)N[C@H]3CCCCNC3=O)cc21 | ≤ 10
2 | CC(C)Cn1ncc2cc(Oc3ccc(F)cc3F)c(C(=O)N[C@H]3CCCCN(C)C3=O)cc21 | ≤ 10
3 | CC(C)Cn1ncc2cc(Oc3ccc(F)cc3F)c(C(=O)N[C@H]3CCN(CCO)C3=O)cc21 | ≤ 10
4 | CC(C)(F)Cn1ncc2cc(Oc3ccc(F)cc3F)c(C(=O)N[C@H]3CCNC3=O)cc21 | ≤ 10
5 | CC(C)(O)Cn1ncc2cc(Oc3ccc(F)cc3F)c(C(=O)N[C@H]3CCNC3=O)cc21 | ≤ 10
6 | CC(C)(F)Cn1ncc2cc(Oc3ccc(F)cc3F)c(C(=O)ON3C(=O)CCC3=O)cc21 | ≤ 10
7 | CC(C)Cn1ncc2cc(Oc3ccc(F)cc3F)c(C(=O)N[C@H]3CCCNC3=O)cc21 | ≤ 10
8 | CC(C)Cn1ncc2cc(Oc3ccc(F)cc3F)c(C(=O)N[C@H]3CCCCNC3=O)cc21 | ≤ 10

The remaining lines, values ahead:

Row | EC50 [µM] | SMILES
9 | ≤ 10 | CC(C)Cn1ncc2cc(Oc3ccc(F)cc3F)c(C(=O)N[C@H]3CCCN(C)C3=O)cc21
10 | ≤ 10 | CC(C)Cn1ncc2cc(Oc3ccc(F)cc3F)c(C(=O)N[C@H]3CCN(C)C3=O)cc21
11 | ≤ 10 | CC(C)(F)Cn1ncc2cc(Oc3ccc(F)cc3F)c(C(=O)N[C@H]3CCCNC3=O)cc21
12 | ≤ 10 | CC(C)Cn1ncc2cc(Oc3ccc(F)cc3F)c(C(=O)N[C@H]3CCCCN(CCO)C3=O)cc21
13 | ≤ 10 | CC(C)Cn1ncc2cc(Oc3ccc(F)cc3F)c(C(=O)N[C@H]3CCCN(CCO)C3=O)cc21
14 | ≤ 10 | CC(C)Cn1ncc2cc(Oc3ccc(F)cc3F)c(C(=O)Nc3ccc[nH]c3=O)cc21
15 | ≤ 10 | CC(C)Cn1ncc2cc(Oc3ccc(F)cc3F)c(C(=O)N[C@H]3CCNC3=O)cc21
